{"source": "patent US20020137929A1", "about": "“1 - (3-heterocyclylphenyl) isothiourea, -isourea, -guanidine and -amidine herbicidal agents” (Intellectual Property Department, BASF Aktiengesellschaft, priority 1998, published 2002)", "key": {"[1]": {"tested_on": "CASOB (Sicklepod)", "test": "Postemergence herbicidal evaluation", "format": "in vivo, Cassia obtusifolia", "conditions": "postemergence", "method_in_brief": "(§1)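 Two-week-old seedlings sprayed with compound in 50/50 acetone/water plus 0.5% TWEEN 20, at about 0.0156 to 0.500 kg/ha, nozzle at 40 psi. Kept in greenhouse; rated visually 4-5 weeks after treatment on a 0-9 scale versus control, repeat tests averaged.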"}, "[2]": {"tested_on": "CHEAL (Lambsquarters, Common)", "test": "Postemergence herbicidal evaluation", "format": "in vivo, Chenopodium album", "conditions": "postemergence", "method_in_brief": "as §1"}, "[3]": {"tested_on": "GALAP (Galium)", "test": "Postemergence herbicidal evaluation", "format": "in vivo, Galium aparine", "conditions": "postemergence", "method_in_brief": "as §1"}, "[4]": {"tested_on": "ORYSAT (Rice, Tebonnet)", "test": "Postemergence herbicidal evaluation", "format": "in vivo, Oryza sativa, (L.) Tebonnet", "conditions": "postemergence", "method_in_brief": "as §1"}, "[5]": {"tested_on": "ZEAMX (Corn, Field)", "test": "Postemergence herbicidal evaluation", "format": "in vivo, Zea mays", "conditions": "postemergence", "method_in_brief": "as §1"}, "[6]": {"tested_on": "AMBEL (Ragweed, Common)", "test": "Preemergence herbicidal evaluation", "format": "in vivo, Ambrosia artemisifolia", "conditions": "rated 4-5 weeks after treatment, rating scale 0-9", "method_in_brief": "(§2)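 In this greenhouse assay, monocot and dicot seeds are planted in soil and treated prior to emergence with an aqueous acetone spray (about 0.0156-0.500 kg/ha). Plants are assessed visually against control on a 0-9 scale after 4-5 weeks.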"}, "[7]": {"tested_on": "SETVI (Foxtail, Green)", "test": "Preemergence herbicidal evaluation", "format": "in vivo, Setaria viridis", "conditions": "rated 4-5 weeks after treatment, rating scale 0-9", "method_in_brief": "as §2"}, "[8]": {"tested_on": "GLXMAW (Soybean, Williams)", "test": "Preemergence herbicidal evaluation", "format": "in vivo, Glycine max, (L.) Merr. cv Williams", "conditions": "rated 4-5 weeks after treatment, rating scale 0-9", "method_in_brief": "as §2"}, "[9]": {"tested_on": "ORYSAT (Rice, Tebonnet)", "test": "Preemergence herbicidal evaluation", "format": "in vivo, Oryza sativa, (L.) Tebonnet", "conditions": "rated 4-5 weeks after treatment, rating scale 0-9", "method_in_brief": "as §2"}, "[10]": {"tested_on": "CYPSE (Flatsedge)", "test": "Preemergence weed control under flooded paddy conditions", "format": "in vivo, Cyperus serotinus", "conditions": "rated 3-4 weeks after treatment", "method_in_brief": "(§3)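 Values are visual 0-9 scores against a control for a preemergence application into paddy flood water at about 0.0313 to 0.500 kg/ha. Greenhouse duration was three to four weeks.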"}, "[11]": {"tested_on": "MOOVA (Monochoria)", "test": "Preemergence weed control under flooded paddy conditions", "format": "in vivo, Monochoria vaginalis", "conditions": "rated 3-4 weeks after treatment", "method_in_brief": "as §3"}}}
{"smiles": "CCOC(=O)CN1C(=O)C(Br)SC1=Nc1cc(-n2c(=O)cc(C(F)(F)F)n(C)c2=O)c(F)cc1Cl", "note": "(centres unmarked) [Compound 153, Ethyl 5-bromo-2-[{2-chloro-5-[3,6-dihydro-3-methyl-2,6-dioxo-4-(trifluoromethyl)-1(2H)-pyrimidinyl]-4-fluorophenyl}imino}-4-oxo-3-thiazolidineacetate]", "values": [{"measurement": "Herbicidal rating CASOB", "setting": "[1]; rate 0.0156 kg/ha", "result": 0.0}, {"measurement": "Herbicidal rating CASOB", "setting": "[1]; rate 0.0313 kg/ha", "result": 0.0}, {"measurement": "Herbicidal rating CASOB", "setting": "[1]; rate 0.0625 kg/ha", "result": 1.0}, {"measurement": "Herbicidal rating CHEAL", "setting": "[2]; rate 0.0156 kg/ha", "result": 0.0}, {"measurement": "Herbicidal rating CHEAL", "setting": "[2]; rate 0.0313 kg/ha", "result": 1.0}, {"measurement": "Herbicidal rating CHEAL", "setting": "[2]; rate 0.0625 kg/ha", "result": 1.0}, {"measurement": "Herbicidal rating GALAP", "setting": "[3]; rate 0.0156 kg/ha", "result": 0.0}, {"measurement": "Herbicidal rating GALAP", "setting": "[3]; rate 0.0313 kg/ha", "result": 0.0}, {"measurement": "Herbicidal rating GALAP", "setting": "[3]; rate 0.0625 kg/ha", "result": 0.0}, {"measurement": "Herbicidal rating ORYSAT", "setting": "[4]; rate 0.0156 kg/ha", "result": 1.5}, {"measurement": "Herbicidal rating ORYSAT", "setting": "[4]; rate 0.0313 kg/ha", "result": 1.5}, {"measurement": "Herbicidal rating ORYSAT", "setting": "[4]; rate 0.0625 kg/ha", "result": 1.5}, {"measurement": "Herbicidal rating ZEAMX", "setting": "[5]; rate 0.0156 kg/ha", "result": 3.0}, {"measurement": "Herbicidal rating ZEAMX", "setting": "[5]; rate 0.0313 kg/ha", "result": 3.5}, {"measurement": "Herbicidal rating ZEAMX", "setting": "[5]; rate 0.0625 kg/ha", "result": 4.5}, {"measurement": "Preemergence herbicidal rating AMBEL", "setting": "[6]; rate 0.1250 kg/ha", "result": 0.0}, {"measurement": "Preemergence herbicidal rating AMBEL", "setting": "[6]; rate 0.2500 kg/ha", "result": 1.0}, {"measurement": "Preemergence herbicidal rating SETVI", "setting": "[7]; rate 0.1250 kg/ha", "result": 1.0}, {"measurement": "Preemergence herbicidal rating SETVI", "setting": "[7]; rate 0.2500 kg/ha", "result": 0.0}, {"measurement": "Preemergence herbicidal rating GLXMAW", "setting": "[8]; rate 0.1250 kg/ha", "result": 0.0}, {"measurement": "Preemergence herbicidal rating GLXMAW", "setting": "[8]; rate 0.2500 kg/ha", "result": 1.0}, {"measurement": "Preemergence herbicidal rating ORYSAT", "setting": "[9]; rate 0.1250 kg/ha", "result": 0.0}, {"measurement": "Preemergence herbicidal rating ORYSAT", "setting": "[9]; rate 0.2500 kg/ha", "result": 0.0}, {"measurement": "herbicidal effect rating, CYPSE", "setting": "[10]; 0.0625 kg/ha", "result": 0.0}, {"measurement": "herbicidal effect rating, CYPSE", "setting": "[10]; 0.1250 kg/ha", "result": 0.0}, {"measurement": "herbicidal effect rating, CYPSE", "setting": "[10]; 0.2500 kg/ha", "result": 0.0}, {"measurement": "herbicidal effect rating, MOOVA", "setting": "[11]; 0.0625 kg/ha", "result": 3.0}, {"measurement": "herbicidal effect rating, MOOVA", "setting": "[11]; 0.1250 kg/ha", "result": 4.0}, {"measurement": "herbicidal effect rating, MOOVA", "setting": "[11]; 0.2500 kg/ha", "result": 5.0}]}
{"smiles": "C=C1SC(=Nc2cc(-n3c(=O)cc(C(F)(F)F)n(C)c3=O)c(F)cc2Cl)N(CC(=O)OCC)C1=O", "note": "[Compound 154]", "values": [{"measurement": "Herbicidal rating CASOB", "setting": "[1]; rate 0.0156 kg/ha", "result": 0.0}, {"measurement": "Herbicidal rating CASOB", "setting": "[1]; rate 0.0313 kg/ha", "result": 0.0}, {"measurement": "Herbicidal rating CASOB", "setting": "[1]; rate 0.0625 kg/ha", "result": 1.0}, {"measurement": "Herbicidal rating CHEAL", "setting": "[2]; rate 0.0156 kg/ha", "result": 9.0}, {"measurement": "Herbicidal rating CHEAL", "setting": "[2]; rate 0.0313 kg/ha", "result": 9.0}, {"measurement": "Herbicidal rating CHEAL", "setting": "[2]; rate 0.0625 kg/ha", "result": 9.0}, {"measurement": "Herbicidal rating GALAP", "setting": "[3]; rate 0.0156 kg/ha", "result": 3.0}, {"measurement": "Herbicidal rating GALAP", "setting": "[3]; rate 0.0313 kg/ha", "result": 3.0}, {"measurement": "Herbicidal rating GALAP", "setting": "[3]; rate 0.0625 kg/ha", "result": 4.0}, {"measurement": "Herbicidal rating ORYSAT", "setting": "[4]; rate 0.0156 kg/ha", "result": 0.5}, {"measurement": "Herbicidal rating ORYSAT", "setting": "[4]; rate 0.0313 kg/ha", "result": 1.5}, {"measurement": "Herbicidal rating ORYSAT", "setting": "[4]; rate 0.0625 kg/ha", "result": 2.0}, {"measurement": "Herbicidal rating ZEAMX", "setting": "[5]; rate 0.0156 kg/ha", "result": 4.0}, {"measurement": "Herbicidal rating ZEAMX", "setting": "[5]; rate 0.0313 kg/ha", "result": 4.0}, {"measurement": "Herbicidal rating ZEAMX", "setting": "[5]; rate 0.0625 kg/ha", "result": 5.0}, {"measurement": "Preemergence herbicidal rating AMBEL", "setting": "[6]; rate 0.0156 kg/ha", "result": 3.0}, {"measurement": "Preemergence herbicidal rating AMBEL", "setting": "[6]; rate 0.0313 kg/ha", "result": 5.0}, {"measurement": "Preemergence herbicidal rating AMBEL", "setting": "[6]; rate 0.0625 kg/ha", "result": 9.0}, {"measurement": "Preemergence herbicidal rating AMBEL", "setting": "[6]; rate 0.1250 kg/ha", "result": 9.0}, {"measurement": "Preemergence herbicidal rating AMBEL", "setting": "[6]; rate 0.2500 kg/ha", "result": 9.0}, {"measurement": "Preemergence herbicidal rating SETVI", "setting": "[7]; rate 0.0156 kg/ha", "result": 2.0}, {"measurement": "Preemergence herbicidal rating SETVI", "setting": "[7]; rate 0.0313 kg/ha", "result": 7.0}, {"measurement": "Preemergence herbicidal rating SETVI", "setting": "[7]; rate 0.0625 kg/ha", "result": 9.0}, {"measurement": "Preemergence herbicidal rating SETVI", "setting": "[7]; rate 0.1250 kg/ha", "result": 9.0}, {"measurement": "Preemergence herbicidal rating SETVI", "setting": "[7]; rate 0.2500 kg/ha", "result": 9.0}, {"measurement": "Preemergence herbicidal rating GLXMAW", "setting": "[8]; rate 0.0156 kg/ha", "result": 0.0}, {"measurement": "Preemergence herbicidal rating GLXMAW", "setting": "[8]; rate 0.0313 kg/ha", "result": 2.0}, {"measurement": "Preemergence herbicidal rating GLXMAW", "setting": "[8]; rate 0.0625 kg/ha", "result": 5.0}, {"measurement": "Preemergence herbicidal rating GLXMAW", "setting": "[8]; rate 0.2500 kg/ha", "result": 8.0}, {"measurement": "Preemergence herbicidal rating ORYSAT", "setting": "[9]; rate 0.0156 kg/ha", "result": 3.0}, {"measurement": "Preemergence herbicidal rating ORYSAT", "setting": "[9]; rate 0.0313 kg/ha", "result": 4.0}, {"measurement": "Preemergence herbicidal rating ORYSAT", "setting": "[9]; rate 0.0625 kg/ha", "result": 8.0}, {"measurement": "Preemergence herbicidal rating ORYSAT", "setting": "[9]; rate 0.1250 kg/ha", "result": 9.0}, {"measurement": "Preemergence herbicidal rating ORYSAT", "setting": "[9]; rate 0.2500 kg/ha", "result": 9.0}, {"measurement": "herbicidal effect rating, CYPSE", "setting": "[10]; 0.0313 kg/ha", "result": 4.0}, {"measurement": "herbicidal effect rating, CYPSE", "setting": "[10]; 0.0625 kg/ha", "result": 6.0}, {"measurement": "herbicidal effect rating, CYPSE", "setting": "[10]; 0.1250 kg/ha", "result": 9.0}, {"measurement": "herbicidal effect rating, CYPSE", "setting": "[10]; 0.2500 kg/ha", "result": 9.0}, {"measurement": "herbicidal effect rating, MOOVA", "setting": "[11]; 0.0313 kg/ha", "result": 6.0}, {"measurement": "herbicidal effect rating, MOOVA", "setting": "[11]; 0.0625 kg/ha", "result": 7.0}, {"measurement": "herbicidal effect rating, MOOVA", "setting": "[11]; 0.1250 kg/ha", "result": 8.0}, {"measurement": "herbicidal effect rating, MOOVA", "setting": "[11]; 0.2500 kg/ha", "result": 9.0}]}
